The values that follow come from ChEMBL document CHEMBL1131723, “Synthesis and structure-activity relationship of novel glycylcycline derivatives leading to the discovery of GAR-936” (1999).

Converted amounts (≈) assume the structure as drawn.

Format in all cases: functional
Assay [1] concerns Enterococcus. Put plainly: In vitro antibacterial activity against Enterococcus ATCC 29212.
Assay [2] concerns Escherichia coli. Put plainly: In vitro antibacterial activity against Escherichia coli J3272 Tet C.
Assay [3] concerns Escherichia coli. Put plainly: In vitro antibacterial activity against Escherichia coli J3272 Tet D.
Assay [4] relates to Escherichia coli. Put plainly: In vitro antibacterial activity against Escherichia coli PRP1 Tet A.
The subject of assay [5] is Escherichia coli. Briefly: In vitro antibacterial activity against Escherichia coli UBMS 88-1 Tet B.
The subject of assay [6] is Escherichia coli. Briefly: In vitro antibacterial activity against Escherichia coli UBMS 90-4 Tet M.
In assay [7] the test system is Escherichia coli. Put plainly: In vitro antibacterial activity against Escherichia coli UBMS 90-5 sensitive.
Assay [8] relates to Staphylococcus aureus. Put plainly: In vitro antibacterial activity against Staphylococcus aureus Smith sensitive.
Assay [9] concerns Staphylococcus aureus. Briefly: In vitro antibacterial activity against Staphylococcus aureus UBMS 90-1 Tet M.
The subject of assay [10] is Staphylococcus aureus. Briefly: In vitro antibacterial activity against Staphylococcus aureus UBMS 90-3 sensitive.
Assay [11] has as its system Staphylococcus aureus. Put plainly: In vitro antibacterial activity against Staphylococcus aureus UBMS 88-7 Tet K.

As for `CN(C)c1cc(NC(=O)CNCc2ccccc2)c(O)c2c1CC1CC3[C@H](N(C)C)C(=O)C(C(N)=O)=C(O)[C@@]3(O)C(=O)C1=C2O` (stereo not given in full), the MIC (commonly the smallest concentration in the dilution series that meets the test's criterion for growth inhibition) in assay [1] worked out at 0.25 µg/mL (≈ 0.403 µM); in assay [2], 2 µg/mL (≈ 3.23 µM); in assay [3], 0.5 µg/mL (≈ 0.807 µM); in assay [4], 4 µg/mL (≈ 6.45 µM); in assay [5] it was 2 µg/mL (≈ 3.23 µM); in assay [6], 0.5 µg/mL (≈ 0.807 µM). In addition, the minimum inhibitory concentration (MIC) in assay [7] was 0.5 µg/mL (≈ 0.807 µM); in assay [8] it was 0.25 µg/mL (≈ 0.403 µM); in [9], 0.5 µg/mL (≈ 0.807 µM); in assay [10], 0.25 µg/mL (≈ 0.403 µM); in assay [11], 2 µg/mL (≈ 3.23 µM).
For the compound `CN(C)c1cc(NC(=O)CNCc2ccccn2)c(O)c2c1CC1CC3[C@H](N(C)C)C(=O)C(C(N)=O)=C(O)[C@@]3(O)C(=O)C1=C2O` (stereo not given in full), the MIC in [1] was determined as 2 µg/mL (≈ 3.22 µM); in [2] it was 16 µg/mL (≈ 25.8 µM); in [3], 8 µg/mL (≈ 12.9 µM); in assay [4] it was 32 µg/mL (≈ 51.6 µM); in [5], 16 µg/mL (≈ 25.8 µM); in [6], 8 µg/mL (≈ 12.9 µM). Moreover, the MIC worked out at 16 µg/mL (≈ 25.8 µM) in [7]; 4 µg/mL (≈ 6.44 µM) in assay [8]; 8 µg/mL (≈ 12.9 µM) in [9]; 4 µg/mL (≈ 6.44 µM) in [10]; 32 µg/mL (≈ 51.6 µM) in assay [11].
With `CN(C)c1ccc(O)c2c1C[C@H]1C[C@H]3[C@H](N(C)C)C(O)=C(C(N)=O)C(=O)[C@@]3(O)C(O)=C1C2=O` [MINOCYCLINE], the MIC is 4 µg/mL (≈ 8.74 µM) in assay [1]; 32 µg/mL (≈ 69.9 µM) in [2]; 4 µg/mL (≈ 8.74 µM) in [3]; > 32 µg/mL in assay [4]; > 32 µg/mL in [5]; 16 µg/mL (≈ 35 µM) in assay [6]. The MIC came out at 16 µg/mL (≈ 35 µM) in [7]; 2 µg/mL (≈ 4.37 µM) in assay [8]; 8 µg/mL (≈ 17.5 µM) in assay [9]; 2 µg/mL (≈ 4.37 µM) in assay [10]; 16 µg/mL (≈ 35 µM) in assay [11].
Consider `CN(C)[C@@H]1C(O)=C(C(N)=O)C(=O)[C@@]2(O)C(O)=C3C(=O)c4c(O)cccc4[C@@](C)(O)[C@H]3C[C@@H]12` [TETRACYCLINE], for which the MIC is 16 µg/mL (≈ 36 µM) in assay [1]; > 32 µg/mL in assay [2]; 8 µg/mL (≈ 18 µM) in assay [3]; 32 µg/mL (≈ 72 µM) in assay [4]; > 32 µg/mL in [5]; > 32 µg/mL in assay [6]. Further, the MIC in assay [7] is 1 µg/mL (≈ 2.25 µM); in [8], 0.25 µg/mL (≈ 0.563 µM); in assay [9], > 32 µg/mL; in assay [10] it was 0.25 µg/mL (≈ 0.563 µM); in [11] it was > 32 µg/mL.
Regarding `CN(C)c1cc(NC(=O)CNC(C)(C)C)c(O)c2c1C[C@H]1C[C@H]3[C@H](N(C)C)C(O)=C(C(N)=O)C(=O)[C@@]3(O)C(O)=C1C2=O` [TIGECYCLINE], the minimal inhibitory concentration (MIC) was determined as 0.12 µg/mL (≈ 0.205 µM) in [1]; 0.25 µg/mL (≈ 0.427 µM) in assay [2]; 0.12 µg/mL (≈ 0.205 µM) in assay [3]; 0.25 µg/mL (≈ 0.427 µM) in [4]; 0.5 µg/mL (≈ 0.854 µM) in assay [5]; 0.12 µg/mL (≈ 0.205 µM) in assay [6]. The MIC came out at 0.25 µg/mL (≈ 0.427 µM) in assay [7]; 0.25 µg/mL (≈ 0.427 µM) in assay [8]; 0.12 µg/mL (≈ 0.205 µM) in assay [9]; 0.25 µg/mL (≈ 0.427 µM) in [10]; 0.5 µg/mL (≈ 0.854 µM) in [11].
